Several values for one entry are separate records, joined by “and”; a condition that tells them apart may be missing. Equal entries are not always repeated. Where two headings read alike, the source gives them in different places.
Assays:
[1] = test system: Staphylococcus aureus ATCC 29213; assay: microbe, parasite or virus in culture; format: cell-based; conditions: Protocol 1
[2] = Vapor sorption (DVS) of free forms; format: physicochemical
Description: In one embodiment, the hydrated Free Form A may be converted to anhydrous Free Form B of the compound by equilibrating in a low humidity environment. […] Upon dehydrating hydrated Free Form A, a corresponding anhydrous Free Form B may be obtained. […] Whether the hydrated Free Form A could absorb additional water is not known at this time. […] At 25° C., the critical humidity for conversion is around 40% (see vapor sorption experiment). […] Humidity was then changed by 5% increments until 95% RH was achieved using the same limiting conditions. The reverse steps were executed on the desorption side from 95% down to 5% RH, while always maintaining 25° C. temperature.

Haemophilus influenzae = assay: Gyrase MIC determination against Gram negatives using microdilution broth method (Protocol 2); format: cell-based; conditions: Haemophilus influenzae Rd0894 (AcrA-)
Description: (§1) Compounds of this invention were tested for antimicrobial activity by susceptibility testing in liquid media. […] The specific protocols used were as follows:
(§2) Protocol 2: Gyrase MIC Determination of Compounds Against Gram Negatives Using Microdilution Broth Method
(§3) Strains (MHII Media for all; Broth and Agar): • 1. Escherichia coli AG100 WT • 2. Escherichia coli AG100 tolC • 3. […] Haemophilus influenzae Rd0894 (AcrA−)
(§4) Inoculum Prep: • 1. Using the BBL Prompt kit, picked 5 big or 10 small, well separated colonies from cultures grown on agar medium and inoculated 1 mL sterile saline that came with the kit. • 2. Vortexed the wells for ˜30 s to give a suspension of ˜10^8 cells/mL. Actual density could be confirmed by plating out dilutions of this suspension. • 3. Diluted the suspension 1/100 by transferring 0.15 mL of cells into 15 mL (˜10^6 cells/mL) sterile broth (see below) for each plate of compounds tested, swirled to mix. […] Used 50 μl cells (˜5×10^4 cells) to inoculate each microtiter well containing 50 μl of the drug diluted in broth (see below).
(§5) Drug Dilutions, Inoculation, MIC Determination: • 1. […] Diluted drug/compound stocks to 200× desired final concentration in 50 μL DMSO. If starting concentration of MICs was 8 μg/mL final concentration, then required 6.25 μL of stock+43.75 μL DMSO. Each 200× stock was placed in a separate row of column 1 of a new 96 well microtiter plate. • 3. Added 25 μL of DMSO to columns 2-12 of all rows of the microtiter plate containing 200× compound stocks and serially diluted 25 μL from column 1 through column 11, changed tips after each column. i.e. 25 μL compound+25 μL DMSO=2× dilution. Left “no compound” DMSO well at the end of the series for control. • 4. For each strain tested, prepared two microtiter plates with 50 μL of MHII broth using a Matrix pipettor. • 5. Transferred 0.5 μL of each dilution (w/Matrix auto-pipettor) to 50 μL of medium/microtiter well prior to the addition of 50 μl of cells. The usual starting concentration of compound was 8 μg/mL after the 1/200 dilution into medium+cells−compound concentrations decreased in 2× steps across the rows of a microtiter plate. All MICs were done in duplicate. • 6. All wells were inoculated with 50 μl of diluted cell suspension (see above) to a final volume of 100 μl. • 7. After inoculum was added, each well was mixed thoroughly with a manual multichannel pipettor; same tips were used going from low to high concentration of drug in the same microtiter plate. • 8. Plates were incubated at 37° C. for at least 18 hours. • 9.
(§6) Examined the test plates after the correct incubation time and read the MIC endpoint at the concentration where a marked reduction occurred in the appearance of growth on the test plate as compared to that of growth on the positive control plates.

Escherichia coli AG100 = assay: as above; format: cell-based
Description: as §1, §2, §3, §4, §5, §6

S. aureus DNA Topo IV = S. aureus DNA Topo IV (Staphylococcus aureus, UniProt P0C1S7); assay: DNA Topo IV ATPase assay; format: biochemical; conditions: solid forms, Table 27c
Description: The conversion of ATP to ADP by S. aureus TopoIV enzyme was coupled to the conversion of NADH to NAD+, and the progress of the reaction was measured by the change in absorbance at 340 nm. TopoIV (64 nM) was incubated with the selected compound (3% DMSO final) in buffer for 10 minutes at 30° C. The buffer consisted of 100 mM Tris 7.5, 1.5 mM MgCl2, 200 mM K·Glutamate, 2.5 mM phosphoenol pyruvate, 0.2 mM NADH, 1 mM DTT, 5 ng/mL linearized DNA, 50 ng/mL BSA, 30 ng/mL pyruvate kinase, and 10 ng/mL lactate dehyrodgenase (LDH). The reaction was initiated with ATP, and rates were monitored continuously for 20 minutes at 30° C. on a Molecular Devices SpectraMAX plate reader. The inhibition constant, Ki, and the IC50 were determined from plots of rate vs. concentration of selected compound fit to the Morrison Equation for tight binding inhibitors.

[3] = test system: Enterococcus faecium ATCC 49624; assay: Gyrase MIC determination using microdilution broth method (Protocol 1); format: cell-based
E. coli DNA Topo IV = assay: E. coli enzyme ATPase inhibition assay (Table 27b); format: biochemical; conditions: E. coli DNA Topo IV (table title), solid forms
S. aureus DNA gyrase = S. aureus DNA gyrase (Staphylococcus aureus, UniProt P0A0K8); assay: DNA gyrase ATPase assay; conditions: solid forms, Table 27a
[4] = Stability of the solid forms (net increase in total impurities at 40 C/30% RH); format: physicochemical
[5] = Rat IV pharmacokinetic study; conditions: D5W, plasma analyte
[6] = Rat oral pharmacokinetic study; format: in vivo, Sprague Dawley rats; conditions: plasma analyte; for AUC: male, Sprague Dawley, plasma, po, read-out: AUCextrap
Excerpt: (§7) Plasma concentration vs. time data was subjected to noncompartmental pharmacokinetic (PK) analysis.

[7] = Monkey oral pharmacokinetic study; format: in vivo, cynomolgus monkeys; conditions: 0.5% MC, plasma analyte
Excerpt: as §7

[8] = Monkey IV pharmacokinetic study; conditions: Compound W IV 5 mg/kg, D5W, plasma analyte
[9] = test system: M. tuberculosis ATCC 35801 (strain Erdman); assay: Mouse M. tuberculosis (Erdman) 28 day lung infection model; format: in vivo, M. tuberculosis; host Balb/c mice; conditions: 28 days; for Log Reduction vs. Early Control / Median Lung Burden / Log Reduction vs. Late Control: Table 23b
[10] = Pharmacokinetic studies: in vivo conversion of prodrug; conditions: in at least rats, dogs and monkeys
Description: The pharmacokinetic parameters of selected compounds of this invention were determined in the experiments described below. General analytic procedures and specific experimental protocols were employed as follows: […]

[11] = test system: Enterococcus faecalis ATCC 29212; assay: Gyrase MIC determination using microdilution broth method (Protocol 1); format: cell-based; conditions: Enterococcus faecalis ATCC 29212, with 3% Laked Horse Blood
[12] = Staphylococcus aureus ATCC 29213
[13] = Staphylococcus aureus ATCC 29213 with 50% Mouse Serum
[14] = Enterococcus faecium ATCC 49624 with 3% Laked Horse Blood

For CCNC(=O)Nc1nc2cc(-c3cnc(C(C)(C)OP(=O)(O)O)nc3)c(F)c([C@H]3CCCO3)c2[nH]1 [Form B, (R)-2-(5-(2-(3-ethylureido)-6-fluoro-7-(tetrahydrofuran-2-yl)-1H-benzo[d]imidazol-5-yl)pyrimidin-2-yl)propan-2-yl dihydrogen phosphate], the MIC [1, 12] was 4 µg/mL, the MIC [1, 13] was 1 µg/mL and the “critical humidity for conversion of Free Form B back to Free Form A” value ([2]; At 25° C.) was “around 40%”. For the same molecule, the MIC (Haemophilus influenzae) was 0.25 µg/mL, the MIC (Escherichia coli AG100; Escherichia coli AG100 WT) was 2 µg/mL and the MIC (Escherichia coli AG100; Escherichia coli AG100 tolC) was 2 µg/mL. The Ki (S. aureus DNA Topo IV) was 10 nM, the MIC [3, 14] was 4 µg/mL and the Ki (E. coli DNA Topo IV) was less than 6 nM. The Ki (S. aureus DNA gyrase) was less than 25 nM and the “Net % increase in total impurities” value ([4]; 17 days, listed as B) was 0.16%.
CCNC(=O)Nc1nc2cc(-c3cnc(C(C)(C)OP(=O)([O-])[O-])nc3)c(F)c([C@H]3CCCO3)c2[nH]1.[Na+].[Na+] [Compound W, disodium (R)-2-(5-(2-(3-ethylureido)-6-fluoro-7-(tetrahydrofuran-2-yl)-1H-benzo[d]imidazol-5-yl)pyrimidin-2-yl)propan-2-yl phosphate] gave an AUCextrap ([5]; Compound W IV 1 mg/kg) of 419 ng·h/mL, a Cl_obs ([5]; Compound W IV 1 mg/kg) of 46.7 mL/min/kg and a Cmax/C0 ([5]; Compound W IV 1 mg/kg) of 4800 ng/mL. For the same molecule, the Vss_obs ([5]; Compound W IV 1 mg/kg) was 0.38 L/kg, the AUCextrap ([5]; Compound W IV 5 mg/kg) was 1120 ng·h/mL and the Cl_obs ([5]; Compound W IV 5 mg/kg) was 84.6 mL/min/kg. It also gave a Cmax/C0 ([5]; Compound W IV 5 mg/kg) of 9030 ng/mL, a Vss_obs ([5]; Compound W IV 5 mg/kg) of 5.8 L/kg and a t1/2 ([6]; Compound W oral 30 mg/kg, 0.5% MC) of 3.1 h. The t1/2 ([6]; Compound W oral 100 mg/kg, 0.5% MC) was 7.2 h, the t1/2 ([6]; Compound W oral 300 mg/kg, 0.5% MC) was 11.3 h and the AUC ([6]; 30 mg/kg, Compound W oral 30 mg/kg, 0.5% MC) was 58 ng·h/mL. The AUC ([6]; 100 mg/kg, Compound W oral 100 mg/kg, 0.5% MC) was 66 ng·h/mL, the AUC ([6]; 300 mg/kg, Compound W oral 300 mg/kg, 0.5% MC) was 464 ng·h/mL and the AUC ([6]; 300 mg/kg, Compound W oral 300 mg/kg, 20% CAPT, 1% HPMC-AS, 1% PVP) was 4270 ng·h/mL. For the same molecule, the AUCextrap ([7]; Compound W PO 100 mg/kg) was 437 ng·h/mL, the t1/2 ([7]; Compound W PO 100 mg/kg) was 5.31 h and the t1/2 ([7]; Compound W PO 300 mg/kg) was 13.15 h. For the same molecule, the AUCextrap [8] was 5830 ng·h/mL, the t1/2 [8] was 5.35 h and the “Log Reduction vs. Early Control” value ([9]; 10 mg/kg BID oral gavage) was 0.64 Log. The “Median Lung Burden” value ([9]; 10 mg/kg BID oral gavage) was 4.34 Log cfu/lungs, the “Log Reduction vs. Late Control” value ([9]; 10 mg/kg BID oral gavage, phosphate) was 0.02 Log and the “Log Reduction vs. Early Control” value ([9]; 30 mg/kg BID oral gavage) was 1.98 Log. The “Log Reduction vs. Late Control” value ([9]; 30 mg/kg BID oral gavage) was 1.36 Log, the “Median Lung Burden” value ([9]; 30 mg/kg BID oral gavage) was 3.00 Log cfu/lungs and the “Log Reduction vs. Early Control” value ([9]; 100 mg/kg BID oral gavage) was 2.63 Log. The “Median Lung Burden” value ([9]; 100 mg/kg BID oral gavage) was 2.35 Log cfu/lungs, the “Log Reduction vs. Late Control” value ([9]; 100 mg/kg BID oral gavage, phosphate) was 2.02 Log and 2.01 Log and the “reduction of bacterial burdens versus the early control” value ([9]; doses of 10, 30, and 100 mg/kg BID) was 0.64-2.63 logs. For the same molecule, the “in vivo conversion of prodrug into parent” value [10] was “converted in vivo into Compound 23”.
With CCNC(=O)Nc1nc2cc(-c3cnc(C(C)(C)OP(=O)(O)O)nc3)c(F)c([C@H]3CCCO3)c2[nH]1 [Form C, (R)-2-(5-(2-(3-ethylureido)-6-fluoro-7-(tetrahydrofuran-2-yl)-1H-benzo[d]imidazol-5-yl)pyrimidin-2-yl)propan-2-yl dihydrogen phosphate] the MIC [11] was 2 µg/mL, the MIC ([1]; Staphylococcus aureus ATCC 29213 GyrB T173I) was greater than 16 µg/mL and the MIC [1, 13] was 1 µg/mL and 2 µg/mL. For the same molecule, the MIC ([1]; Staphylococcus aureus, ATCC29213, Staphylococcus aureus ATCC 29213, read-out: MIC) was 4 µg/mL, the MIC (Haemophilus influenzae; read-out: MIC) was 0.25 µg/mL and the MIC (Escherichia coli AG100; Escherichia coli AG100 WT) was >16 µg/mL and >8 µg/mL. For the same molecule, the MIC [3, 14] was 4 µg/mL, the Ki (E. coli DNA Topo IV) was less than 6 nM and the Ki (S. aureus DNA gyrase) was 27 nM. For the same molecule, the “Net % increase in total impurities” value ([4]; 17 days, listed as C) was 0.18%.
In the case of CCNC(=O)Nc1nc2cc(-c3cnc(C(C)(C)OP(=O)(O)O)nc3)c(F)c([C@H]3CCCO3)c2[nH]1 [Form A, (R)-2-(5-(2-(3-ethylureido)-6-fluoro-7-(tetrahydrofuran-2-yl)-1H-benzo[d]imidazol-5-yl)pyrimidin-2-yl)propan-2-yl dihydrogen phosphate], the MIC [1, 12] is reported as 4 µg/mL, the MIC ([1]; Staphylococcus aureus, ATCC29213, Staphylococcus aureus ATCC 29213 with 50% Mouse Serum, read-out: MIC) is reported as 1 µg/mL and the “water content of fully hydrated form (vapor sorption isotherm)” value ([2]; vapor sorption, 25° C.) is reported as “about 6 weight %”. It also gave an MIC (Haemophilus influenzae) of 0.25 µg/mL, an MIC (Escherichia coli AG100; Escherichia coli AG100 WT) greater than 8 µg/mL and an MIC (Escherichia coli AG100; Escherichia coli AG100 tolC) greater than 8 µg/mL. For the same molecule, the Ki (S. aureus DNA Topo IV) was less than 4 nM, the MIC ([3]; ATCC49624, Enterococcus faecium ATCC 49624 with 3% Laked Horse Blood, read-out: MIC) was 4 µg/mL and the Ki (E. coli DNA Topo IV) was 11 nM. For the same molecule, the Ki (S. aureus DNA gyrase) was 26 nM and the “Net % increase in total impurities” value ([4]; 15 days) was 0.07%.

— patent publication US9018216B2, “Solid forms of (R)-2-(5-(2-(3-ethylureido)-6-fluoro-7-(tetrahydrofuran-2-yl)-1H-benzo[d]imidazol-5-yl)pyrimidin-2-yl)propan-2-yl dihydrogen phosphate and salts thereof” (priority 2012, dated 2015)
